Reference: patent EP0107907A2, “Improvements in or relating to immunomodulating agents” (ELI LILLY AND COMPANY, priority 1982, dated 1984)
Marks after values point to notes of the source that are not given here.

Assays:
Electrometric titration = type: physicochemical; details: 66% aqueous dimethylformamide; the glycyl amino group
Solubility = type: physicochemical
Excerpt: A53868 factor A is soluble in water and dimethyl sulfoxide and is insoluble in most organic solvents.
Soluhility: soluble in water and dimethyl sulfoxide; insoluble in most organic solvents

murine macrophages = experiment: In vitro activation of murine macrophages (macrophage-mediated tumor cytotoxicity against P815 cells); type: cell-based; details: 48 hours
Procedure: In one procedure, the ability of the compounds to activate murine macrophages in vitro was determined. Peritoneal macrophages were exposed to a compound of formula 1, 2, or 3 simultaneously with the addition of target cells. Tumor cytotoxicity of these treated macrophages was determined 48 hours later by trypan blue enumeration. The percentage of growth inhibition of P815 cells due to composition-mediated macrophage activation was calculated by comparison to that of P815 cells grown in the.presence of macrophages exposed to buffer.

peritoneal macrophages = experiment: In vivo macrophage activation (peritoneal macrophages from treated mice, cytotoxicity against P815 cells); design: species or system BALB/c mice
Procedure: In another procedure, peritoneal macrophages were harvested after 3, 5, or 10 days from composition- treated mice by peritoneal lavage and purified by adherence on plastic. Approximately 4 x 10^5 macrophages in 16-mm wells were overlaid with 4 x 10^4 P815 cells contained in 2 ml of Roswell Park Memorial Institute.1640 Medium supplemented with 20 percent fetal calf serum. All cultures were maintained in a humidified, 5-percent COZ-in-air incubator at 37°C., and cytotoxicity was assessed at 48 hours on the basis of viable cell counts in a hemocytometer. Triplicate cultures were maintained for each group; the mean cell count and standard error (S.E.) were calculated. […] The ratio of macrophages to target cells was approximately 10:1 at the beginning of each experiment. The percentage of growth inhibition of P815 cells due to composition-mediated macrophage activation was calculated by comparison to that of P815 cells grown in the presence of macrophages from buffer- treated animals.

L. monocytogenes EDG = experiment: Standard agar-diffusion test, antibacterial; type: cell-based
Excerpt: Compound 1 was negative in the Limulus Lysate Test for endotoxin and was devoid of intrinsic in vitro antibacterial activity against L. monocytogenes EDG in a standard agar-diffusion test.

C. albicans A26 = experiment: Standard agar-diffusion test, antifungal; type: cell-based
Procedure: (§1) In this test CD1 mice weighing 18-20 g were pretreated intraperitoneally or subcutaneously with test compound at 5, 3, and 1 days before intravenous infection with 5 x 10^6 viable cells of Candida albicans A26. Test compound was solubilized in pyrogen-free water and administered in 0.25 ml of solution. Ten mice were used for each concentration tested. Ten infected mice were treated intraperitoneally or subcutaneously at 5, 3, and 1 days preinfection with 0.25 ml of pyrogen-free water as controls. The immunomodulatory effects of the test compound were studied in X-irradiated mice exposed to 400R 24 hours preinfection, or mice treated intraperitoneally with 50 mg/kg cyclophosphamide 5, 3, and 1 days preinfection. The mice were caged, watered, and fed daily. The number of surviving mice was counted daily. Normal mice surviving 18 days post-infection were given an arbitrary 19-day survival time. X-irradiated or cyclophosphamide-treated mice surviving 12 days post-infection were given an arbitrary 13 day survival time. The average survival time was calculated for each group. Significant differences between treated and untreated groups of mice were determined by "T" test. Compound 1 was devoid of intrinsic in vitro antifungal activity against C. albicans A26 in a standard agar-diffusion test.

Candida albicans A26 = experiment: Protection of mice by pretreatment against lethal Candida albicans infection; type: in vivo, CD1 mice
Procedure: as §1

[1] = Cyclophosphamide-Pretreated Mice, dose 25 mg/kg
[2] = Cyclophosphamide-Pretreated Mice, dose 50 mg/kg

## C=C(CP(=O)(O)O)NC(=O)[C@H](CC(C)C)NC(=O)CN [Compound 1, N^2-glycyl-N-(1-methylene-2-phosphonoethyl)leucinamide]
Electrometric titration
  pKa: 8.2
Solubility; most organic solvents
  solubility in most organic solvents: insoluble
Solubility; water and dimethyl sulfoxide
  solubility in water and dimethyl sulfoxide: soluble
Murine macrophages; 1.56 µg/ml, Experiment 2
  Percent Macrophage Cytotoxicity: 0%
Murine macrophages; 3.12 µg/ml, Experiment 1
  Percent Macrophage Cytotoxicity: 11%
Murine macrophages; 3.12 µg/ml, Experiment 2
  Percent Macrophage Cytotoxicity: 14%
Murine macrophages; 6.25 µg/ml, Experiment 1
  Percent Macrophage Cytotoxicity: 0%
Murine macrophages; 6.25 µg/ml, Experiment 2
  Percent Macrophage Cytotoxicity: 0%
Murine macrophages; 12.5 µg/ml, Experiment 1
  Percent Macrophage Cytotoxicity: 27%
Murine macrophages; 12.5 µg/ml, Experiment 2
  Percent Macrophage Cytotoxicity: 39%
Murine macrophages; 25 µg/ml, Experiment 1
  Percent Macrophage Cytotoxicity: 43%
Murine macrophages; 25 µg/ml, Experiment 2
  Percent Macrophage Cytotoxicity: 32%
Murine macrophages; 50 µg/ml, Experiment 1
  Percent Macrophage Cytotoxicity: 35%
Murine macrophages; 50 µg/ml, Experiment 2
  Percent Macrophage Cytotoxicity: 29%
Murine macrophages; 100 µg/ml, Experiment 1
  Percent Macrophage Cytotoxicity: 53%
Peritoneal macrophages; dose 10 mg/kg, Day 0
  Percent Macrophage Cytotoxicity at Day: 0%
Peritoneal macrophages; dose 10 mg/kg, Day 3
  Percent Macrophage Cytotoxicity at Day: 8%
Peritoneal macrophages; dose 10 mg/kg, Day 5
  Percent Macrophage Cytotoxicity at Day: 20%
Peritoneal macrophages; dose 10 mg/kg, Day 10
  Percent Macrophage Cytotoxicity at Day: 0%
Peritoneal macrophages; dose 100 mg/kg, Day 0
  Percent Macrophage Cytotoxicity at Day: 0%
Peritoneal macrophages; dose 100 mg/kg, Day 3
  Percent Macrophage Cytotoxicity at Day: 43%
Peritoneal macrophages; dose 100 mg/kg, Day 5
  Percent Macrophage Cytotoxicity at Day: 25%
Peritoneal macrophages; dose 100 mg/kg, Day 10
  Percent Macrophage Cytotoxicity at Day: 0%
L. monocytogenes EDG
  intrinsic in vitro antibacterial activity: devoid
C. albicans A26
  intrinsic in vitro antifungal activity: devoid
Candida albicans A26; [1]
  Average Survival Time: 6.8 days
  Percent Increase In Average Survival Time Above Untreated Controls: 54.5* Percent
Candida albicans A26; [2]
  Average Survival Time: 6.1 days
  Percent Increase In Average Survival Time Above Untreated Controls: 38.6* Percent
Candida albicans A26; Normal Mice, dose 12.5 mg/kg
  Average Survival Time: 9.1 days
  Percent Increase In Average Survival Time Above Untreated Controls: 68.0* Percent
Candida albicans A26; Normal Mice, dose 50 mg/kg
  Average Survival Time: 7.1 days
  Percent Increase In Average Survival Time Above Untreated Controls: 31.5* Percent
Candida albicans A26; preinfection treatments at 5, 3, and 1 days, intraperitoneally or subcutaneously
  protecting mice from a lethal Candida albicans A26 infection: significantly effective
